Legend:
HUVEC [1] = assay: Compound was evaluated for inhibition of expression of ELAM-1 in IL-1 beta activated human umbilical vein endothelial cells(HUVECs) by using ELISA; format: functional, cell-based
Mus musculus = species: Mus musculus; assay: Compound was evaluated for inhibition of neutrophil recruitment in a mouse skin immune complex model.; format: functional; parameters: concentration or dose not given beside the values
HUVEC [2] = assay: Compound was evaluated for inhibition of expression of VCAM-1 in IL-1 beta activated human umbilical vein endothelial cells(HUVECs) by using ELISA; format: functional, cell-based
HUVEC [3] = assay: Compound was evaluated for inhibition of expression of VCAM-1 in IL-1 beta activated human umbilical vein endothelial cells(HUVECs) by using ELISA at 30 uM; format: functional
HUVEC [4] = assay: Compound was evaluated for inhibition of expression of ELAM-1 in IL-1 beta activated human umbilical vein endothelial cells(HUVECs) by using ELISA at 30 uM; format: functional

Row | Structure (SMILES) | IC50 (HUVEC [1]) [µM] | Inhibition (Mus musculus) [%] | IC50 (HUVEC [2]) [µM] | inhibition at 30 µM (HUVEC [3]) [%] | inhibition at 30 µM (HUVEC [4]) [%]
1 | COc1c(C)cnc(C[S+]([O-])c2nnc(-c3ccccc3O)o2)c1C (configuration not stated) | 10 | 20 | 8 |  | 
2 | COc1c(C)cnc(C[S+]([O-])c2nnc(-c3cccs3)o2)c1C (configuration not stated) | 5 |  | 3 |  | 
3 | COc1ccnc2c1CCCCC2[S+]([O-])c1nnc(C)o1 (configuration not stated) |  |  |  | 0 | 0
4 | COc1c(C)cnc(C[S+]([O-])c2nnc(-c3cccn3C)o2)c1C (configuration not stated) | 6 |  | 4 |  | 
5 | Cc1nnc([S+]([O-])Cc2ccccc2)o1 (configuration not stated) |  |  |  | 35 | 20
6 | [O-][S+](Cc1ccccc1)c1nnc(-c2cccs2)o1 (configuration not stated) | 7 | 40 | 6 |  | 
7 | [O-][S+](Cc1ccccc1)c1nnc(-c2cccnc2)o1 (configuration not stated) | 8 | 50 | 6 |  | 
8 | CCCc1nnc([S+]([O-])Cc2ncc(C)c(OC)c2C)o1 (configuration not stated) | 10 |  | 8 |  | 
9 | [O-][S+](Cc1ccccc1)c1nnc(-c2ccncc2)o1 (configuration not stated) | 4 | 55 | 3 |  | 
10 | COc1c(C)cnc(C[S+]([O-])c2nnc(-c3ccc(C(F)(F)F)cc3)o2)c1C (configuration not stated) |  |  |  | 70 | 50
11 | COc1c(C)cnc(C[S+]([O-])c2nnc(C)o2)c1C (configuration not stated) | 10 | 55 | 8 |  | 
12 | COc1c(C)cnc(C[S+]([O-])c2nnc(-c3cccc(F)c3)o2)c1C (configuration not stated) | 15 |  | 12 |  | 
13 | [O-][S+](Cc1ccccc1)c1nnc(-c2ccccn2)o1 (configuration not stated) | 5 | 80 | 4 |  | 
14 | [O-][S+](Cc1ccccc1)c1nnc(-c2ccccc2O)o1 (configuration not stated) | 8 |  | 6 |  | 
15 | COc1c(C)cnc(C[S+]([O-])c2nnc(-c3cccc(C(F)(F)F)c3)o2)c1C (configuration not stated) |  |  |  | 85 | 70
16 | CCCCc1nnc([S+]([O-])Cc2ncc(C)c(OC)c2C)o1 (configuration not stated) |  |  |  | 85 | 60
17 | CCCCCc1nnc([S+]([O-])Cc2ncc(C)c(OC)c2C)o1 (configuration not stated) |  |  |  | 70 | 45
18 | COc1c(C)cnc(C[S+]([O-])c2nnc(-c3ccccc3)o2)c1C (configuration not stated) | 7 | 25 | 6 |  | 
19 | Cc1nnc([S+]([O-])Cc2ccccn2)o1 (configuration not stated) |  | 40 |  | 80 | 60
20 | COc1c(C)cnc(C[S+]([O-])c2nnc(-c3ccc(F)cc3)o2)c1C (configuration not stated) | 14 |  | 11 |  | 
21 | Cc1nnc([S+]([O-])c2c(C)cccc2C)o1 (configuration not stated) |  |  |  | 0 | 0
22 | CCc1nnc([S+]([O-])Cc2ncc(C)c(OC)c2C)o1 (configuration not stated) | 12 |  | 10 |  | 

Source: ChEMBL document CHEMBL1128925, “Novel inhibitors of cell adhesion molecule expression” (Bioorg Med Chem Lett, 1996)
